Assay results as given in US6255324A, “Amino-and mercurio-substituted 4',5'-dihydropsoralens and therapeutical uses thereof” (priority 1998, dated 2001).
Structures can show the parent of a compound that is named as a salt. Where two headings read alike, the source gives them in different places.

How the values were obtained:
PAM 212 keratinocytes [1] = assay: PAM 212 keratinocyte growth inhibition (photo-toxicity with UVA / dark-toxicity without light); assay type: cell-based; conditions: UVA 320-400 nm, 1.28 J/cm2, growth 4-5 days
Description: Representative examples of the compounds described and claimed herein were tested in this assay for biological activity and found to be potent inhibitors of cell growth. Inhibition of cell growth was rapid, dependent on concentration, and required light activation. […] A description of this assay follows.
The photobiological activity was assayed using a keratinocyte cell line grown in a monolayer culture. In this assay, PAM 212 keratinocytes were grown in Dulbecco's Modified Eagle's medium supplemented with 10% newborn calf serum in a 5% carbon dioxide incubator. Cells were inoculated into 6-well Falcon plastic culture dishes at 25,000 cells per well. After 24 hours, the medium was charged to fresh growth medium supplemented with increasing concentrations of the test compounds or the control medium. Controls and test concentrations were analyzed in triplicate.
These plates were then incubated in a 37 degree C. carbon dioxide incubator. After 30 minutes culture plates were exposed to UVA light (UVA, 320-400 nm) emitted from a bank of four BLB fluorescent light tubes (F40 BL, Sylvania) placed approximately 10 cm above the cell culture plates. The incident light on the culture plates was 2.4 mW/cm^2 as measured with an International Light UV radiometer, Model IL 442A. The cells were exposed to 1.28 J/square centimeter of UVA.
After completion of the irradiation phase, the cell culture medium was drained, the cells refed with fresh growth medium and then re-incubated in the carbon dioxide incubator to allow for cell growth. After 4-5 days of growth the culture plates were removed from the incubator and the cell culture medium was drained. The cells were detached from the plates with trypsin and counted in a Coulter Counter. For control cells or for cells treated with test compounds, cell growth was determined as a percentage of control. […] This value is shown in Table I for a variety of phototherapeutics.

Aspergillus niger = assay: Fungicidal assay, MIC against Aspergillus niger in MSY broth; assay type: cell-based; conditions: Table II, four days at 28° C, in the dark, no unit in table (ppm levels)
Description: The antifungal activities of compounds synthesized were measured by determining the inhibition of growth of Aspergillus niger in a standard liquid medium. The liquid growth medium is described as a solution of mineral salts and yeast extract (MSY). The MSY broth was prepared as described in ASTM G21-70, and amended with glucose (10 g/l) and yeast extract (1 g/l). An aliquot ([…]) of sterile medium was dispensed into each test well of a standard 96 well microplate (Corning No. 430247). Stock solutions of test compounds were prepared by dissolving the materials in 9:1 (v/v) solutions of acetone:methanol. Appropriate volumes of stock solutions were added to the test wells in order to achieve the desired ppm levels. Each test well (plus controls) was then inoculated with […] of a standardized suspension of Aspergillus niger. The cell suspension was prepared by suspending viable cells from a slant of potato dextrose agar into sterile, deionized water. The suspension was then adjusted to provide OD686 =0.28. This density contains approximately 2.5×10^7 CFU (colony forming units)/ml. The microplates were incubated in the dark for four days at 28° C. The optical density for each well at 686 nm was then recorded automatically using a SpectraMax 340 microplate reader (Molecular Devices Corp., Sunnyvale, Calif.). All wells were visually inspected in order to corroborate data from the instrument.
The antifungal activity was measured as minimum inhibitory concentrations or MIC of the 5'-substituted-4',5'-dihydropsoralens.

Chlorella vulgaris = assay: Algicidal assay, MIC against Chlorella in modified Allen's medium; assay type: cell-based; conditions: Table III, 14 days, 26 to 28° C, no unit in table (ppm)
Description: To assay the activity of the 5'-substituted-4',5'-dihydropsoralens of the invention against Chlorella, the Allen method (A. A. Allen, […], Journal of Phycology, 4, 1-4) was employed. […] The minimum inhibitory concentration (MIC) of the compounds tested against the fungus Aspergillus niger using an MSY broth is shown in Table II.
Test tubes containing modified Allen's medium were treated with increasing dosages of the compound to be tested and inoculated with a suspension of algal cells. After fourteen days of incubation, algal growth was rated as positive or negative. The minimum inhibitory concentration (MIC) of the compound is the smallest dosage showing negative algal growth.
The apparatus required consisted of sterilized test tubes, 18-150 mm and an incubator, capable of a constant (±2° C.) temperature within 26 to 28° C. The following procedure was used:
(1) Stock solutions (g/200 g deionized water each) were generated with: K2 HPO4, 1.50 g; MgSO4, 7H2 O, 1.50 g; Na2 CO3, 0.80 g; CaCl2 2H2 O, 0.50 g; Na2 SiO3 9H2 O, 1.16 g, and Citric acid, 1.20 g.
(3) The modified Allen's medium was prepared in a volumetric flask by the addition of 1.5 g NaNO3, 5.0 mL stock solution K2 HPO4, 5.0 mL stock solution MgSO4 -- 7H2 O, 5.0 mL Stock solution Na2 CO3, 10.0 mL stock solution CaCl2 2H2 O, 10.0 mL stock solution Na2 SiO3 9H2 O, 1.0 mL stock solution Citric acid and 1.0 mL stock solution PIV metal with enough deionized water to make 1000 mL of medium (Allen, 1968). The pH was adjusted to 7.8 and 5 mL of medium is added to each test tube. The tubes were sterilized in the autoclave for 20 minutes at 15 psi at 121° C. The test tubes were allowed to cool to 45-50° C. before adding the test compound and the inoculurn to the medium.
(4) The inoculum was a cell suspension from a 14-day-old culture of Chlorella vulgaris (UTEX 26, University of Texas) that was grown in modified Allen's medium.
The concentration of the stock solution in water or acetone of the compound to be tested is dependent on the largest dose required to be tested. Dilutions of the stock solution were made so that 100 μL of the stock solution of the corresponiding dilution was added per test tube. 100 μL of the solvent was added to the control to prepare the stock solution.
The inoculation consists of the addition of 100 μL of inoculurn per test tube.
The incubation of the control test tube and the test tubes containing compound and inoculum occurred in an incubator set between 26 to 28° C., with the temperature not varying more than ±2° C. Light was provided by plant growth fluorescent tubes and the test tubes were allowed to stand in the incubator for 14 days.
Rating of the test tubes containing different dosages of the compound will be positive or negative. […] If the medium in the rubes remains colorless, a negative (not contaminated) rating is given. The control is always positive. The minimum inhibitory concentration (MIC) of the compound is determined to be the smallest dosage showing negative algal growth.

PAM 212 keratinocytes [2] = assay: PAM 212 keratinocyte growth inhibition (photo-toxicity with UVA / dark-toxicity without light); assay type: cell-based
[3] = system: Mycobacterium tuberculosis H37Rv; assay: Antituberculosis primary in vitro screen, BACTEC 460; assay type: cell-based, Mycobacterium tuberculosis H37Rv ATCC 27294; conditions: Mycobacterium tuberculosis, H37RV; 12.5 μg/mL, 37° C; read-out: Anti-tubercular Activity (% inhibition)
[4] = Mus musculus, PAM212, light or radiation study

Work on “4,8-dimethyl-5'-trifluoroacetomercurimethyl-4',5'-dihydropsoralen [R = H, T = Hg-O-COCF3]” yielded an IC50 (PAM 212 keratinocytes [1]) of 4.2 µM, an MIC (Aspergillus niger) of 16 and an MIC (Chlorella vulgaris) of 10. It also gave an IC50 (PAM 212 keratinocytes [2]) of 7 µM.

Work on `Cc1c(Br)c(=O)oc2c(C)c3c(cc12)CC(CI)O3` (stereo not shown) [R = Br, T = I, 3-Bromo-4,8-dimethyl-5'-iodomethyl-4',5'-dihydropsoralen] yielded an IC50 (PAM 212 keratinocytes [1]; [4]) of 0.48 µM and an inhibition at 12.5 µg/mL [3] of 25%.

`Cc1c(Br)c(=O)oc2c(C)c3c(cc12)CC(CN1C(=O)c2ccccc2C1=O)O3` (stereo not shown) [R = Br, T = phthalimido] was tested, and the IC50 (PAM 212 keratinocytes [1]; [4]) was 3.9 µM.

With `Cc1c(Br)c(=O)oc2c(C)c3c(cc12)CC(C[n+]1ccccc1)O3` (stereo not shown) [R = Br, T = pyridinium iodide salt, 3-Bromo-4,8-dimethyl-5'-(N-pyridiniummethyl)-4',5'-dihydropsoralen Iodide Salt] the IC50 (PAM 212 keratinocytes [1]; [4]) was 1.6 µM.

In the case of `Cc1c(C#N)c(=O)oc2c(C)c3c(cc12)CC(CBr)O3` (stereo not shown) [R = CN, T = Br, 3-Cyano-4,8-dimethyl-5'-bromomethyl-4',5'-dihydropsoralen], the IC50 (PAM 212 keratinocytes [1]) was 6.4 µM.

With `CC(=O)[O][Hg][CH2]C1Cc2cc3c(C)c(C#N)c(=O)oc3c(C)c2O1` (stereo not shown) [R = CN, T = HgOAc, 3-Cyano-4,8-dimethyl-5'-acetomercurimethyl-4',5'-dihydropsoralen] the IC50 (PAM 212 keratinocytes [1]) was 20 µM and the IC50 (PAM 212 keratinocytes [2]) was 30 µM.

`Cc1c(C#N)c(=O)oc2c(C)c3c(cc12)CC(CI)O3` (stereo not shown) [R = CN, T = I, 3-Cyano-4,8-dimethyl-5'-iodomethyl-4',5'-dihydropsoralen] gave an IC50 (PAM 212 keratinocytes [1]; [4]) of 2.1 µM.

Compound `Cc1c(C#N)c(=O)oc2c(C)c3c(cc12)CC(C[n+]1ccccc1)O3` (stereo not shown) [R = CN, T = pyridinium iodide salt, 3-Cyano-4,8-dimethyl-5'-(N-pyridiniummethyl)-4',5'-dihydropsoralen Iodide Salt] has an IC50 (PAM 212 keratinocytes [1]; [4]) of 1000 µM.

With `Cc1c(F)c(=O)oc2c(C)c3c(cc12)CC(CBr)O3` (stereo not shown) [R = F, T = Br, 3-Fluoro-4,8-dimethyl-5'-bromomethyl-4',5'-dihydropsoralen] the IC50 (PAM 212 keratinocytes [1]) was 4 µM.

For `CC(=O)[O][Hg][CH2]C1Cc2cc3c(C)c(F)c(=O)oc3c(C)c2O1` (stereo not shown) [R = F, T = HgOAc, 3-Fluoro-4,8-dimethyl-5'-acetomercurimethyl-4',5'-dihydropsoralen], the IC50 (PAM 212 keratinocytes [1]) was 9.3 µM and the IC50 (PAM 212 keratinocytes [2]) was 14 µM.

`Cc1c(F)c(=O)oc2c(C)c3c(cc12)CC(CI)O3` (stereo not shown) [R = F, T = I, 3-Fluoro-4,8-dimethyl-5'-iodomethyl-4',5'-dihydrofurocoumarin] showed an IC50 (PAM 212 keratinocytes [1]; [4]) of 62 µM and an inhibition at 12.5 µg/mL [3] of 31%.

`Cc1cc(=O)oc2c(C)c3c(cc12)CC(CN1CC(C)OC(C)C1)O3` (stereo not shown) [R = H, T = 2,6-dimethylmorpholine, 4,8-Dimethyl-5'-(2,6-dimethylmorpholino)methyl-4',5'-dihydropsoralen] gave an IC50 (PAM 212 keratinocytes [1]; [4]) of 0.01 µM.

In the case of `Cc1cc(=O)oc2c(C)c3c(cc12)CC(C)O3` (stereo not shown) [R = H, T = H, reference compound], the IC50 (PAM 212 keratinocytes [1]; [4]) was 0.27 µM.

With `Cc1cc(=O)oc2c(C)c3c(cc12)CC([CH2][Hg][Cl])O3` (stereo not shown) [R = H, T = HgCl, 4,8-Dimethyl-5'-chloromercurimethyl-4',5'-dihydropsoralen] the IC50 (PAM 212 keratinocytes [1]) was 6.1 µM, the MIC (Aspergillus niger) was less than 8 and the MIC (Chlorella vulgaris) was 10. The IC50 (PAM 212 keratinocytes [2]) was 15 µM.

With `Cc1cc(=O)oc2c(C)c3c(cc12)CC([CH2][Hg][I])O3` (stereo not shown) [R = H, T = HgI, 4,8-Dimethyl-5'-iodomercurimethyl-4',5'-dihydropsoralen] the IC50 (PAM 212 keratinocytes [1]) was 1.3 µM, the MIC (Aspergillus niger) was less than 8 and the MIC (Chlorella vulgaris) was 9. For the same compound, the IC50 (PAM 212 keratinocytes [2]) was 4.2 µM.

`CC(=O)[O][Hg][CH2]C1Cc2cc3c(C)cc(=O)oc3c(C)c2O1` (stereo not shown) [R = H, T = HgOAc, 4,8-Dimethyl-5'-acetomercurimethyl-4',5'-dihydropsoralen] was tested, and the IC50 (PAM 212 keratinocytes [1]) was 4.8 µM, the MIC (Aspergillus niger) was less than 8 and the MIC (Chlorella vulgaris) was 10. It also gave an IC50 (PAM 212 keratinocytes [2]) of 6.2 µM.

For `Cc1cc(=O)oc2c(C)c3c(cc12)CC(CI)O3` (stereo not shown) [R = H, T = I, 4,8-Dimethyl-5'-iodomethyl-4',5'-dihydropsoralen], the IC50 (PAM 212 keratinocytes [1]; [4]) was 1.1 µM and the inhibition at 12.5 µg/mL [3] was 24%.

In the case of `Cc1cc(=O)oc2c(C)c3c(cc12)CC(CN(CCO)CCO)O3` (stereo not drawn) [R = H, T = N(CH2 CH2 OH)2, 4,8-Dimethyl-5'-[N,N-β-(hydroxyethylamino)-methyl]-4',5'-dihydropsoralen], the IC50 (PAM 212 keratinocytes [1]; [4]) was 0.31 µM.

With `Cc1cc(=O)oc2c(C)c3c(cc12)CC(CN(C)C)O3` (stereo not shown) [R = H, T = dimethyl amino iodide salt, 4,8-Dimethyl-5'-[(N,N-dimethylamino)methyl]-4',5'-dihydropsoralen Hydroiodide Salt] the IC50 (PAM 212 keratinocytes [1]; [4]) was 0.1 µM and the inhibition at 12.5 µg/mL [3] was 4%.

With `Cc1cc(=O)oc2c(C)c3c(cc12)CC(CN1CCOCC1)O3` (stereo not shown) [R = H, T = morpholino, 4,8-Dimethyl-5'-morpholinomethyl-4',5'-dihydropsoralen] the IC50 (PAM 212 keratinocytes [1]; [4]) was 3.2 µM.

`Cc1cc(=O)oc2c(C)c3c(cc12)CC(C[n+]1ccccc1)O3` (stereo not shown) [R = H, T = pyridinium iodide salt, 4,8-Dimethyl-5'-(N-pyridiniummethyl)-4',5'-dihydropsoralen Iodide Salt] was tested, and the IC50 (PAM 212 keratinocytes [1]; [4]) was 0.37 µM.

For `Cc1c(I)c(=O)oc2c(C)c3c(cc12)CC(CI)O3` (stereo not shown) [R = I, T = I, 3-Iodo-4,8-dimethyl-5'-iodomethyl-4',5'-dihydropsoralen], the IC50 (PAM 212 keratinocytes [1]; [4]) was 4.2 µM and the inhibition at 12.5 µg/mL [3] was 17%.

Work on `[Cl][Hg][CH2]C1Cc2ccccc2O1` (stereo not shown) [T = HgCl, 2-Chloromercurimethyl-2,3-dihydrobenzofuran] yielded an IC50 (PAM 212 keratinocytes [1]) of 5.9 µM, an MIC (Aspergillus niger) of 24 and an MIC (Chlorella vulgaris) of 10. The IC50 (PAM 212 keratinocytes [2]) was 13 µM.

`CC(=O)[O][Hg][CH2]C1Cc2ccccc2O1` (stereo not shown) [T = HgOAc, 2-Acetomercurimethyl-2,3-dihydrobenzofuran] gave an IC50 (PAM 212 keratinocytes [1]) of 6.1 µM, an MIC (Aspergillus niger) of 16 and an MIC (Chlorella vulgaris) of 10. For the same compound, the IC50 (PAM 212 keratinocytes [2]) was 11 µM.
